Data: patent US6537967B1, “Pentamer peptide amide, ALGPGNH2, which inhibits viral infectivity and methods of use thereof” (Tripep AB, priority 2001, dated 2003)
Peptide text beside a SMILES is read from it.

Tests used:
Format in all cases: cell-based
HIV-1 clinical isolate 2 = HIV-1 clinical isolate 2 infectivity assay in PBMC (p24 in culture supernatant); conditions: FIG. 2
Method: (§1) In this example, the methods that were used to analyze the ability of ALGPG-NH2 (SEQ. ID. NO.: 1) to inhibit HIV- l replication are disclosed. HIV-1 SF-2 stock was prepared from HUT78 cells and two clinical isolates were prepared from donor's peripheral blood mononuclear cells (PBMC). The virus infected cells were propagated and maintained in RPMI 1640 medium supplemented with 10% heat inactivated fetal bovine serum (GIBCO Laboratories) with penicillin and streptomycin (100 μg/ml each). PBMCs were purified by Ficoll-Hypaque density gradient centrifugation and stimulated with phytohemagglutinin (KEBO laboratories, Sweden) for three days in RPMI 1640 medium supplemented with 10% heat inactivated fetal bovine serum (GIBCO Laboratories) with penicillin and streptomycin (100 μg/ml each).
(§2) The infectivity assays of the HIV-1 clinical isolates were performed, as above, in PBMC, which were stimulated for three days with 2.5 μg/ml of phytohemagglutinin (DIFCO, New Jersey). Cells were cultured in RPMI 1640 medium supplemented with 10% (v/v) heat-inactivated fetal bovine serum (FBS), penicillin (100 u/ml), and streptomycin (100 u/ml), all available through GIBCO, and Polybrene (2 μg/ml), available through Sigma. […] The production of p24 in the culture supernatent was monitored using a commercially available HIV p24 antigen detection kit (ELISA kit from Abbott Laboratories, North Chicago, U.S.A.).

HIV-1 SF-2 = HIV-1 SF-2 infectivity assay in H9 cells (RT activity and p24 in culture supernatant); conditions: 25 TCID50, FIG. 1
Method: as §1
Approximately 10^5 of H9 cells were infected with HIV-1 SF-2, obtained as described above, at 25 TCID50 to test the inhibitory effect of ALGPG-NH2 (SEQ. ID. NO.: 1). The H9 cells were resuspended with or without ALGPG-NH2 (SEQ. ID. NO.: 1) (at approximately 5 μM, 20 μM, and […]) in 1 ml of RPMI 1640 medium supplemented with 10% (v/v) heat-inactivated fetal bovine serum (FBS), penicillin (100 μ/ml), and streptomycin (100 u/ml), all available through GIBCO, and Polybrene (2 μg/ml), available through Sigma. Thereafter, viruses were added at 25 TCID50 in a volume of 20-30 μl. Cells were incubated with virus at 37° C. for 1 hr then pelleted at 170×g for 7 minutes. The cells were then washed three times in RPMI medium with or without peptides at room temperature and pelleted at 170×g for 7 minutes, as above. […]
Culture supernatants were collected and analyzed when the medium was changed at 4, 7, 10, and 14 days post infection. […] The amount of RT was determined with the aid of a regression line of standards. The presence of p24 in the supernatants was determined using a commercially available HIV p24 antigen detection kit (ELISA kit from Abbott Laboratories, North Chicago, U.S.A.).

HIV-1 clinical isolate 1 = HIV-1 clinical isolate 1 infectivity assay in PBMC (p24 in culture supernatant); conditions: FIG. 2
Method: as §1, §2

CC(C)C[C@H](NC(=O)[C@H](C)N)C(=O)NCC(=O)N1CCC[C@H]1C(=O)NCC(N)=O [ALGPG-NH2] (H-ALGPG-NH2; N-terminus assumed)
inhibition of isolate 2 (HIV-1 clinical isolate 2; 20 μM): approximately 50% | inhibition of isolate 2 (HIV-1 clinical isolate 2; 100 μM): almost complete | inhibition of HIV-1 SF-2 infection (HIV-1 SF-2; 5 μM peptide amide): approximately 50% | inhibition of HIV-1 SF-2 infection (HIV-1 SF-2; 20 μM peptide amide): almost complete | inhibition of HIV-1 SF-2 infection (HIV-1 SF-2; 100 μM peptide amide): almost complete | inhibition of isolate 1 (HIV-1 clinical isolate 1; 20 μM): approximately 20% | inhibition of isolate 1 (HIV-1 clinical isolate 1; 100 μM): almost complete
